{"source": "patent US5300279A", "about": "“Organic amine phosphonic acid complexes for the treatment of calcific tumors” (The Dow Chemical Company, priority 1990, dated 1994)", "key": {"[1]": {"test": "biolocalization of the radionuclide in rats (tissue distribution after tail vein injection)", "type": "in vivo, male Sprague Dawley rats", "conditions": "Sm-153, rats", "experimental": "Studies to determine the qualitative biodistribution of the various radionuclides were conducted by injecting the compositions into rats and obtaining the gamma ray images of the entire animal at various times up to two hours after injection.\nLaboratory rats were injected with the above complex (50-100 μl) via the tail vein. After 2 hours, the animals were sacrificed by cervical dislocation and organs and tissues removed. Samples were counted with a NaI counter to determine the biolocalization of the radionuclide."}, "[2]": {"conditions": "rabbits, three hour, averaged for 5 rabbits", "experimental": "Biolocalization studies were also performed in rabbits. The rabbits were injected with 100-250 microliters of the composition into the marginal ear vein. In studies where blood clearance was measured, blood samples were taken through a heparinized cannula placed in the marginal vein of the ear not used for injection. Three hours after injection, a blood sample was taken from each rabbit by cardiac puncture and each animal was sacrificed by injection of a commercial euthanasia solution. After sacrifice, images were obtained by placing the carcass directly on the face of a large field-of-view scintillation camera.\nWhenever in the following examples and tables data is presented on the administered dose of radioactivity, the numbers given represent the percentage of the administered dose which localized in the indicated tissue. The ratios of radioactivity observed in bone relative to blood and muscle were calculated based on the percent dose per gram in the bone and in the blood and muscle. Whenever the ratios of radioactivity found in bone to that found in nonosseous tissue is given, the calculation was made as indicated above on a percent dose per gram basis.\nCompositions containing Sm-153-EDTMP (compositions prepared as in Example 2) were also tested in rabbits."}, "tumor [3]": {"system": "tumor", "experimental": "(§1) An English Setter with a tumor in his pelvis was injected with approximately 19 mCi of a composition containing Sm-153-EDTMP. After 2 hours, the dog was imaged using a scintillation camera.\nAn Irish Setter with a tumor in the femur was injected with a composition containing Sm-153-EDTMP. The leg was amputated and samples of the tumor and normal bone were analyzed for Sm-153.\n(§2) An Irish setter with undifferentiated sarcoma metastatic to bone was treated with 16 mCi (0.57 mCi/kg) of a composition containing Sm-153-EDTMP. […] After approximately 3 months, when signs of lameness began to reappear, the dog was given a second treatment of 15 mCi (0.49 mCi/kg), of a composition containing Sm-153-EDTMP."}, "tumor [4]": {"system": "tumor", "experimental": "as §1, §2\nA female Irish Wolfhound with a possible osteosarcoma on the left distal radius was injected with a composition containing ^166 Ho-EDTMP (0.97 mCi/kg).", "remark": "listed apart in the source"}, "[5]": {"conditions": "for Percent Injected Dose Remaining in Whole Blood, Average: average of 5 patients", "experimental": "(§3) Sterile pyrogen-free vials were prepared to contain 210 mg of EDTMP and 140 mg NAOH by freeze-drying a solution containing appropriate amounts of EDTMP and NAOH. The vials were sealed under vacuum. To prepare one of the compositons of the invention, 6 ml of a solution containing Sm-153 (approximately 3×10^-4 M in Sm) in 0.1M HCl was injected into the sealed vial through a septum.\nFive humans with metastatic bone cancer (three with lung cancer and two with prostate cancer as the primary site) were injected with a composition containing 2 mCi of Sm-153-EDTMP. Blood samples were taken intermittently to determine the fraction of the Sm-153 remaining in the blood."}, "[6]": {"experimental": "as §3\nUrine was collected and counted to determine the percentage of the radioactivity excreted as a function of time after injection."}, "cancerous lesions": {"system": "cancerous lesions", "test": "scintigraphic imaging in humans with metastatic bone cancer", "type": "in vivo", "experimental": "Scintigraphic images were obtained two hours post injection and were used for comparison with images previously obtained using Tc-99m-HDP (hydroxymethylenediphosphonate), a commercially available diagnostic bone imaging agent.\nThe uptake observed for each radionuclide in selected lesions compared to its uptake in normal bone was determined using digitized images."}, "lesion / normal bone": {"system": "lesion / normal bone", "conditions": "compared with Tc-99m-MDP", "procedure": "Thus, two holes were drilled into the surface of the tibia of a rabbit in order to damage the bone. Seven to ten days later, the animal was injected with the radionuclide composition. After three hours, the rabbit was anesthetized and imaged using an Anger camera and pinhole collimator."}, "[7]": {"conditions": "2 hours, ratio of percent dose per gram, average of 5 rats"}, "[8]": {"conditions": "Irish setter, nine months after second treatment"}}, "note": "Like-named read-outs stand apart in the source and are kept apart here."}
{"smiles": "O=P([O-])(O)CN(CCN(CP(=O)([O-])O)CP(=O)(O)O)CP(=O)([O-])O.[153Sm+3]", "note": "[Example 2]", "values": [{"measurement": "scintillation scans", "setting": "[1]", "result": "the radioactivity concentrating in the skeletal system"}, {"measurement": "clearance of radioactivity through the kidneys into the urine", "setting": "[1]; 2 hours", "result": "Most of the radioactivity not found in the skeleton was cleared through the kidneys into the urine"}, {"measurement": "radioactivity concentrated in the skeletal system", "setting": "[1]; 2 hours", "result": "55-65%"}, {"measurement": "soft tissue uptake", "setting": "[1]; 2 hours", "result": "very little soft tissue uptake"}, {"measurement": "% Dose in Blood", "setting": "[1]; 2 hours, average of 5 rats", "result": 0.032, "unit": "% Dose"}, {"measurement": "% Dose in Liver", "setting": "[1]; 2 hours, average of 5 rats", "result": 0.25, "unit": "% Dose"}, {"measurement": "% Dose in Skeleton", "setting": "[1]; 2 hours, average of 5 rats", "result": 58, "unit": "% Dose"}, {"measurement": "% Dose in Urine", "setting": "[1]; 2 hours, average of 5 rats", "result": 49, "unit": "% Dose"}, {"measurement": "Bone/Blood", "setting": "[1]; [7]", "result": 1800}, {"measurement": "Bone/Muscle", "setting": "[1]; [7]", "result": 1500}, {"measurement": "% Dose in Blood", "setting": "[2]", "result": 0.12, "unit": "% Dose"}, {"measurement": "% Dose in Bone Marrow", "setting": "[2]", "result": 0.15, "unit": "% Dose"}, {"measurement": "% Dose in Liver", "setting": "[2]", "result": 0.95, "unit": "% Dose"}, {"measurement": "% Dose in Skeleton", "setting": "[2]", "result": 66, "unit": "% Dose"}, {"measurement": "% Dose in Urine", "setting": "[2]; 180 min", "result": 34, "unit": "% Dose"}, {"measurement": "Bone/Blood", "setting": "[2]; ratio of percent dose per gram", "result": 900}, {"measurement": "Bone/Muscle", "setting": "[2]; ratio of percent dose per gram", "result": 1200}, {"measurement": "uptake of radioactivity in the area of the tumor (scintillation scan)", "setting": "tumor [3]; English Setter, tumor in pelvis, approximately 19 mCi, 2 hours", "result": "high uptake of radioactivity in the area of the tumor"}, {"measurement": "scans compared with Tc-99m-MDP", "setting": "tumor [3]; English Setter, 2 hours", "result": "looked very similar to an earlier scan performed using Tc-99m-MDP"}, {"measurement": "lesion to normal bone ratio", "setting": "tumor [3]; English Setter, compared with Tc-99m", "result": "very similar to that for To-99m"}, {"measurement": "amount of Sm-153 in the tumor relative to non-lesionous bone, per gram basis", "setting": "tumor [3]; Irish Setter, tumor in femur, same leg", "result": "15-20 times"}, {"measurement": "scans compared with Tc-99m-MDP", "setting": "tumor [3]; Irish setter, sarcoma metastatic to bone", "result": "very similar to scans obtained earlier using Tc-99m-MDP"}, {"measurement": "uptake of Sm-153 in the area of the lesion (scintillation scans)", "setting": "tumor [3]; Irish setter, sarcoma metastatic to bone, 16 mCi (0.57 mCi/kg)", "result": "high uptake of Sm-153 in the area of the lesion"}, {"measurement": "pain / mobility", "setting": "tumor [4]; English Setter, approximately 19 mCi, seven days after treatment", "result": "appeared to be in less pain as evidenced by an increase in its mobility"}, {"measurement": "pain / mobility / lameness", "setting": "tumor [4]; Irish setter, 16 mCi (0.57 mCi/kg), seven days after treatment", "result": "appeared to be in less pain as evidenced by an increase in mobility and a decrease in lameness"}, {"measurement": "time until signs of lameness began to reappear", "setting": "tumor [4]; Irish setter, after first treatment 16 mCi (0.57 mCi/kg)", "result": "approximately 3 months"}, {"measurement": "lameness and general health", "setting": "tumor [4]; Irish setter, eight months after second treatment", "result": "no recurrence of lameness, had gained weight and appeared healthy"}, {"measurement": "regression of bone lesions (X-rays)", "setting": "tumor [4]; Irish setter, five months after second treatment", "result": "significant regression of bone lesions"}, {"measurement": "death", "setting": "tumor [4]; [8]", "result": "died of kidney failure"}, {"measurement": "total necropsy", "setting": "tumor [4]; [8]", "result": "no evidence of cancer"}, {"measurement": "mobility / lameness after second treatment", "setting": "tumor [4]; Irish setter, second treatment 15 mCi (0.49 mCi/kg), seven days", "result": "general increase in mobility and decrease in lameness"}, {"measurement": "Percent Injected Dose Remaining in Whole Blood, Average", "setting": "[5]; 5 min.", "result": 31.63, "unit": "Percent Injected Dose"}, {"measurement": "Percent Injected Dose Remaining in Whole Blood, Average", "setting": "[5]; 15 min.", "result": 20.90, "unit": "Percent Injected Dose"}, {"measurement": "Percent Injected Dose Remaining in Whole Blood, Average", "setting": "[5]; 30 min.", "result": 15.77, "unit": "Percent Injected Dose"}, {"measurement": "Percent Injected Dose Remaining in Whole Blood, Average", "setting": "[5]; 60 min.", "result": 9.53, "unit": "Percent Injected Dose"}, {"measurement": "Percent Injected Dose Remaining in Whole Blood, Average", "setting": "[5]; 120 min.", "result": 5.17, "unit": "Percent Injected Dose"}, {"measurement": "Percent Injected Dose Remaining in Whole Blood, Average", "setting": "[5]; 180 min.", "result": 3.28, "unit": "Percent Injected Dose"}, {"measurement": "Percent Injected Dose Remaining in Whole Blood, Average", "setting": "[5]; 240 min.", "result": 2.08, "unit": "Percent Injected Dose"}, {"measurement": "concentration of radioactivity in red cells", "setting": "[5]; humans", "result": "no significant concentration of radioactivity in red cells"}, {"measurement": "radioactivity in the plasma fraction", "setting": "[5]; humans", "result": "all of the measured activity was in the plasma fraction"}, {"measurement": "clearance of radioactivity from the blood", "setting": "[5]; humans, words", "result": "the radioactivity cleared very rapidly from the blood"}, {"measurement": "Percent Excretion in Urine, Average", "setting": "[6]; 1 Hr., average of 5 patients", "result": 26.13, "unit": "%"}, {"measurement": "Percent Excretion in Urine, Average", "setting": "[6]; 2 Hr., average of 5 patients", "result": 7.15, "unit": "%"}, {"measurement": "Percent Excretion in Urine, Average", "setting": "[6]; 4-8 Hr., average of 5 patients", "result": 9.02, "unit": "%"}, {"measurement": "Percent Excretion in Urine, Average", "setting": "[6]; 4 Hr., average of 5 patients", "result": 10.95, "unit": "%"}, {"measurement": "Percent Excretion in Urine, Average", "setting": "[6]; 8-12 Hr., average of 5 patients", "result": 1.76, "unit": "%"}, {"measurement": "Percent Excretion in Urine, Average", "setting": "[6]; 12-24 Hr., average of 5 patients", "result": 1.07, "unit": "%"}, {"measurement": "Percent Excretion in Urine, 24 Hr Total, Average", "setting": "[6]; 24 Hr Total, average of 5 patients", "result": 56.09, "unit": "%"}, {"measurement": "clearance of radioactivity into the urine", "setting": "[6]; humans, words", "result": "cleared rapidly"}, {"measurement": "Sm-153 concentration in cancerous lesions", "setting": "cancerous lesions; compared with dogs", "result": "high, selective and similar to that observed in dogs"}, {"measurement": "localization of radioactivity in lesions vs normal bone compared with Tc-99m-HDP", "setting": "cancerous lesions; digitized images", "result": "localization of radioactivity in the lesions to a similar extent"}, {"measurement": "visibility of cancerous lesions compared with Tc-99m-HDP", "setting": "cancerous lesions; qualitative comparison of images", "result": "all cancerous lesions observable with Tc-99m-HDP are seen equally well with Sm-153-EDTMP"}, {"measurement": "retention of radioactivity in the kidneys", "setting": "cancerous lesions; two hour post injection images", "result": "no observable retention of radioactivity in the kidneys"}, {"measurement": "localization of Sm-153 in scintigraphic images", "setting": "cancerous lesions; two hours post injection", "result": "localized in skeletal tissue with no significant uptake and retention in non-osseous tissues"}, {"measurement": "lesion to normal bone ratio", "setting": "lesion / normal bone", "result": "approximately equal to that of Tc-99m-MDP"}]}
